Patent US8889676B2, “3-ureidoisoquinolin-8-yl derivatives” (Actelion Pharmaceuticals Ltd., priority 2011, dated 2014)
Values after ≈ are worked out from the molar mass of the structure shown.

tested on: S. pneumoniae ATCC 49619; test: Minimal inhibitory concentration (MIC) by broth microdilution (CLSI M7-A7); assay type: cell-based, Streptococcus pneumoniae; conditions: Streptococcus pneumoniae, ATCC49619; cation-adjusted Mueller Hinton Broth supplemented with 3% (v/v) lysed horse blood; microdilution method
Summary of the method: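 Broth microdilution per CLSI M7-A7 in cation-adjusted Mueller-Hinton broth with 3% (v/v) lysed horse blood for S. pneumoniae. MIC in mg/l.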

Row | Compound | MIC [µg/mL]
1 | CCNC(=O)Nc1cc2c(-c3ccnc(CO)c3)ccc(CNC(=O)OCCOC)c2cn1 [Example 122, [3-(3-ethyl-ureido)-5-(2-hydroxymethyl-pyridin-4-yl)-isoquinolin-8-ylmethyl]-carbamic acid 2-methoxy-ethyl ester] | 4 (≈ 8.82 µM)
2 | CCNC(=O)Nc1cc2c(-c3ccnnc3)ccc(CNC(=O)OC(C)(C)C)c2cn1 [Example 124, [3-(3-ethyl-ureido)-5-pyridazin-4-yl-isoquinolin-8-ylmethyl]-carbamic acid tert-butyl ester] | 0.5 (≈ 1.18 µM)
3 | C#CCOC(=O)NCc1ccc(-c2cccnc2)c2cc(NC(=O)NCC)ncc12.Cl [Example 125, [3-(3-ethyl-ureido)-5-pyridin-3-yl-isoquinolin-8-ylmethyl]-carbamic acid prop-2-ynyl ester hydrochloride] | 1
4 | C#CCOC(=O)NCc1ccc(-c2ccncc2C)c2cc(NC(=O)NCC)ncc12 [Example 126, [3-(3-ethyl-ureido)-5-(3-methyl-pyridin-4-yl)-isoquinolin-8-ylmethyl]-carbamic acid prop-2-ynyl ester] | 1 (≈ 2.4 µM)
5 | C#CCOC(=O)NCc1ccc(-c2ccnc(C#N)c2)c2cc(NC(=O)NCC)ncc12 [Example 128, [5-(2-cyano-pyridin-4-yl)-3-(3-ethyl-ureido)-isoquinolin-8-ylmethyl]-carbamic acid prop-2-ynyl ester] | 1 (≈ 2.33 µM)
6 | C#CC(=O)NCc1ccc(-c2ccnnc2)c2cc(NC(=O)NCC)ncc12 [Example 129, propynoic acid [3-(3-ethyl-ureido)-5-pyridazin-4-yl-isoquinolin-8-ylmethyl]-amide] | 0.5 (≈ 1.34 µM)
7 | CCNC(=O)Nc1cc2c(-c3ccncc3)ccc(CNC(=O)CCC3CC3)c2cn1 [Example 130, 3-cyclopropyl-N-[3-(3-ethyl-ureido)-5-pyridin-4-yl-isoquinolin-8-ylmethyl]-propionamide] | 0.5 (≈ 1.2 µM)
8 | C#CCOC(=O)NCc1ccc(-c2cccc(O)c2)c2cc(NC(=O)NCC)ncc12.Cl [Example 133, [3-(3-ethyl-ureido)-5-(3-hydroxy-phenyl)-isoquinolin-8-ylmethyl]-carbamic acid prop-2-ynyl ester hydrochloride] | 0.5
9 | C#CCOC(=O)NCc1ccc(-c2cccc(C(N)=O)c2)c2cc(NC(=O)NCC)ncc12.Cl [Example 136, [5-(3-carbamoyl-phenyl)-3-(3-ethyl-ureido)-isoquinolin-8-ylmethyl]-carbamic acid prop-2-ynyl ester hydrochloride] | 2
10 | C#CCOC(=O)NCc1ccc(-c2ccc(C(=O)O)cc2)c2cc(NC(=O)NCC)ncc12.Cl [Example 137, 4-[3-(3-ethyl-ureido)-8-(prop-2-ynyloxycarbonylamino-methyl)-isoquinolin-5-yl]-benzoic acid hydrochloride] | 0.25
11 | C#CCOC(=O)NCc1ccc(-c2ccc(O)cc2)c2cc(NC(=O)NCC)ncc12.Cl [Example 138, [3-(3-ethyl-ureido)-5-(4-hydroxy-phenyl)-isoquinolin-8-ylmethyl]-carbamic acid prop-2-ynyl ester hydrochloride] | 0.5
12 | C#CCOC(=O)NCc1ccc(-c2ccccc2O)c2cc(NC(=O)NCC)ncc12.Cl [Example 139, [3-(3-ethyl-ureido)-5-(2-hydroxy-phenyl)-isoquinolin-8-ylmethyl]-carbamic acid prop-2-ynyl ester hydrochloride] | 1
13 | C#CCOC(=O)NCc1ccc(-c2cncnc2)c2cc(NC(=O)NCC)ncc12.Cl [Example 140, [3-(3-ethyl-ureido)-5-pyrimidin-5-yl-isoquinolin-8-ylmethyl]-carbamic acid prop-2-ynyl ester hydrochloride] | 1
14 | C#CCOC(=O)NCc1ccc(-c2ccc(C(N)=O)cc2)c2cc(NC(=O)NCC)ncc12.Cl [Example 141, [5-(4-carbamoyl-phenyl)-3-(3-ethyl-ureido)-isoquinolin-8-ylmethyl]-carbamic acid prop-2-ynyl ester hydrochloride] | 0.25
15 | C#CCOC(=O)NCc1ccc(-c2ccc(CO)nc2)c2cc(NC(=O)NCC)ncc12.Cl [Example 142, [3-(3-ethyl-ureido)-5-(6-hydroxymethyl-pyridin-3-yl)-isoquinolin-8-ylmethyl]-carbamic acid prop-2-ynyl ester hydrochloride] | 1
16 | C#CCOC(=O)NCc1ccc(-c2ccnc(N)c2)c2cc(NC(=O)NCC)ncc12.Cl [Example 144, [5-(2-amino-pyridin-4-yl)-3-(3-ethyl-ureido)-isoquinolin-8-ylmethyl]-carbamic acid prop-2-ynyl ester hydrochloride] | 0.5
17 | CCNC(=O)Nc1cc2c(Cl)ccc(CNC(=O)OCCCN3CCOCC3)c2cn1 [Example 148, [5-chloro-3-(3-ethyl-ureido)-isoquinolin-8-ylmethyl]-carbamic acid 3-morpholin-4-yl-propyl ester] | 4 (≈ 8.89 µM)
18 | CCNC(=O)Nc1cc2c(-c3ccnc(C)c3)ccc(CNC(C)=O)c2cn1 [Example 153, N-[3-(3-ethyl-ureido)-5-(2-methyl-pyridin-4-yl)-isoquinolin-8-ylmethyl]-acetamide] | 1 (≈ 2.65 µM)
19 | CCNC(=O)Nc1cc2c(-c3ccnc(C)c3)ccc(CNC(=O)C3CC3)c2cn1 [Example 154, cyclopropanecarboxylic acid [3-(3-ethyl-ureido)-5-(2-methyl-pyridin-4-yl)-isoquinolin-8-ylmethyl]-amide] | 0.5 (≈ 1.24 µM)
20 | C#CC(=O)NCc1ccc(-c2ccnc(C)c2)c2cc(NC(=O)NCC)ncc12 [Example 155, propynoic acid [3-(3-ethyl-ureido)-5-(2-methyl-pyridin-4-yl)-isoquinolin-8-ylmethyl]-amide] | 0.5 (≈ 1.29 µM)
21 | CCNC(=O)Nc1cc2c(Cl)ccc(CNC(=O)OC)c2cn1 [Example 159, [5-chloro-3-(3-ethyl-ureido)-isoquinolin-8-ylmethyl]-carbamic acid methyl ester] | 1 (≈ 2.97 µM)
22 | CCNC(=O)Nc1cc2c(-c3ccnc(C4CC4)c3)ccc(CNC(=O)OC)c2cn1 [Example 160, [5-(2-cyclopropyl-pyridin-4-yl)-3-(3-ethyl-ureido)-isoquinolin-8-ylmethyl]-carbamic acid methyl ester] | 2 (≈ 4.77 µM)

Other lines, results leading:

Row | MIC [µg/mL] | Compound
23 | 8 (≈ 19.8 µM) | C#CCOC(=O)NCc1ccc(-c2ccnnc2)c2cc(NC(=O)NCC)ncc12 [Example 127, [3-(3-ethyl-ureido)-5-pyridazin-4-yl-isoquinolin-8-ylmethyl]-carbamic acid prop-2-ynyl ester]
24 | 0.5 | C#CCOC(=O)NCc1ccc(-c2ccc(N)nc2)c2cc(NC(=O)NCC)ncc12.Cl [Example 131, [5-(6-amino-pyridin-3-yl)-3-(3-ethyl-ureido)-isoquinolin-8-ylmethyl]-carbamic acid prop-2-ynyl ester hydrochloride]
25 | 4 | C#CCOC(=O)NCc1ccc(-c2cccc(CNC(C)=O)c2)c2cc(NC(=O)NCC)ncc12.Cl [Example 132, {5-[3-(acetylamino-methyl)-phenyl]-3-(3-ethyl-ureido)-isoquinolin-8-ylmethyl}-carbamic acid prop-2-ynyl ester hydrochloride]
26 | 4 | C#CCOC(=O)NCc1ccc(-c2cccc(CC(=O)O)c2)c2cc(NC(=O)NCC)ncc12.Cl [Example 135, {3-[3-(3-ethyl-ureido)-8-(prop-2-ynyloxycarbonylamino-methyl)-isoquinolin-5-yl]-phenyl}-acetic acid hydrochloride]
27 | 0.5 | C#CCOC(=O)NCc1ccc(-c2ccc(CO)cc2)c2cc(NC(=O)NCC)ncc12.Cl [Example 143, [3-(3-ethyl-ureido)-5-(4-hydroxymethyl-phenyl)-isoquinolin-8-ylmethyl]-carbamic acid prop-2-ynyl ester hydrochloride]
28 | 4 (≈ 8.39 µM) | CCNC(=O)Nc1cc2c(-c3ccncc3)ccc(CNC(=O)CCCN3CCOCC3)c2cn1 [Example 147, N-[3-(3-ethyl-ureido)-5-pyridin-4-yl-isoquinolin-8-ylmethyl]-4-morpholin-4-yl-butyramide]
29 | 4 (≈ 9.23 µM) | CCNC(=O)Nc1cc2c(F)ccc(CNC(=O)OCCCN3CCOCC3)c2cn1 [Example 149, [3-(3-ethyl-ureido)-5-fluoro-isoquinolin-8-ylmethyl]-carbamic acid 3-morpholin-4-yl-propyl ester]
30 | 1 (≈ 2.9 µM) | C#CCOC(=O)NCc1ccc(F)c2cc(NC(=O)NCC)ncc12 [Example 150, [3-(3-ethyl-ureido)-5-fluoro-isoquinolin-8-ylmethyl]-carbamic acid prop-2-ynyl ester]
31 | 2 (≈ 5.49 µM) | CCNC(=O)Nc1cc2c(F)ccc(CNC(=O)OCCOC)c2cn1 [Example 151, [3-(3-ethyl-ureido)-5-fluoro-isoquinolin-8-ylmethyl]-carbamic acid 2-methoxy-ethyl ester]
32 | 1 (≈ 2.17 µM) | CCNC(=O)Nc1cc2c(-c3ccncc3)ccc(CNC(=O)OCCc3cnn[nH]3)c2cn1 [Example 152, [3-(3-ethyl-ureido)-5-pyridin-4-yl-isoquinolin-8-ylmethyl]-carbamic acid 2-(3H-[1,2,3]triazol-4-yl)-ethyl ester]
33 | 0.5 (≈ 1.16 µM) | CCNC(=O)Nc1cc2c(-c3ccnc(C)c3)ccc(CNC(=O)c3ncc[nH]3)c2cn1 [Example 156, 1H-imidazole-2-carboxylic acid [3-(3-ethyl-ureido)-5-(2-methyl-pyridin-4-yl)-isoquinolin-8-ylmethyl]-amide]
34 | 1 (≈ 2.37 µM) | CCNC(=O)Nc1cc2c(-c3ccnc(C)c3)ccc(CNC(=O)CCOC)c2cn1 [Example 157, N-[3-(3-ethyl-ureido)-5-(2-methyl-pyridin-4-yl)-isoquinolin-8-ylmethyl]-3-methoxy-propionamide]
35 | 0.5 (≈ 1.2 µM) | C#CCOC(=O)NCc1ccc(-c2ccnc(C)c2)c2cc(NC(=O)NCC)ncc12 [Example 158, [3-(3-ethyl-ureido)-5-(2-methyl-pyridin-4-yl)-isoquinolin-8-ylmethyl]-carbamic acid prop-2-ynyl ester]

same assay, conditions: cation-adjusted Mueller Hinton Broth supplemented with 3% (v/v) lysed horse blood; microdilution method

Row | Compound | MIC for S. pneumoniae ATCC 49619 [µg/mL]
36 | CCNC(=O)Nc1cc2c(-c3ccnc(CN4CCOCC4)c3)ccc(CNC(=O)OCCOC)c2cn1 [Example 123, {3-(3-ethyl-ureido)-5-[(2-morpholin-4-ylmethyl)-pyridin-4-yl]-isoquinolin-8-ylmethyl}-carbamic acid 2-methoxy-ethyl ester] | 8
